Key:
[1] = RP-HPLC elution position of synthetic proET-1 peptides; format: physicochemical; details: ACE-5 C4 300 Å, 5 µm, 4.6 × 250 mm, 1 ml/min, 0.1% TFA – 10% solvent B (80% CH3CN with 0.1% TFA) over 2 min, then 10–30% B over 50 min, 1 min fractions, absorbance at 280 nm and immunoassay
Protocol: Figure 2 Size exclusion chromatography of peptide precipitates from (A) EA.hy 926 and (B) A549 cell lines, (C) cation exchange chromatography of conditioned media from EA.hy 926, and HPLC characterisation of pro-ET-1 peptides from EA.hy 926 cells – (D) NT-proET-1, (E) ELDP and (F) CT-proET-1. (A) and (B) proendothelin-1 peptides from EA.hy 926 and A549 cell lines were subjected to size exclusion chromatography (column 1.6 × 100 cm, Sephadex G50 superfine) equilibrated at 4 °C with 0.1 M NaCl containing 0.01 M HCl. Fractions were subjected to immunoassay for ppET-1[42–50] (open circles) and ppET-1[93–102] (closed circles). Elution positions of adrenomedullin (ADM, M r 6029), big ET-1 (bET-1, M r 4283) and ET-1 (M r 2492) are indicated. […] ELDP (red columns) and CT-proET-1 (blue columns) were measured using immunoassays. […]
ProET-1 peptides were subjected to reverse phase HPLC on C4 silica (15 µm, 300 Å pore, 1 × 25 cm; Jupiter® Phenomenex) with gradient elution at 2 ml/min: 0.1% TFA – 15% solvent B (80% CH3CN with 0.1% TFA) over 2 min, followed by 15–60% B over 45 min. […] Synthetic peptides were used to characterise elution positions of NT-proET-1, ELDP and CT-proET-1 on this second HPLC system by monitoring absorbance at 280 nm and immunoassay of fractions. […]

anaesthetised rats = test: Mean arterial blood pressure in anaesthetised rats; format: in vivo, rat
Protocol: Figure 7 Cardiovascular effects of ELDP. […] (B) vasoconstrictor response to ET-1 (1 × 10^−9 M) alone (n = 8) or after pre-incubation with ELDP[162-amide] (10 × 10^−9 M, n = 10); P < 0.002; Student’s t-test. (C) Change in mean arterial blood pressure in anaesthetised rats following ET-1 (0.3 nmol/kg, i.v.) alone (white circles, n = 6) or 15 min after ELDP (3 nmol/kg i.v.) (red circles, n = 6). […] Results are mean ± s.e.m.
All experiments were conducted according to the Animals (Scientific Procedures) Act 1986, UK, and approved by the UK Home Office. Clearance rates of proET-1 peptides and blood pressure effects of ELDP were determined in male Wistar rats (Charles River) anaesthetised with sodium thiopentone (120 mg/kg i.p.). Peptides were administered i.v. via a polyethylene catheter in the left femoral vein. Blood samples (0.5 ml) were collected from a catheter in the left carotid artery into chilled 1.5 ml microcentrifuge tubes containing 50 U/5 µl of heparin. Samples were centrifuged at 12,000 rpm for 2 min at 4 °C. Plasma (50 µl aliquots) samples were stored at −80 °C for subsequent analyses. Blood pressure and heart rate were recorded from the left carotid artery via a polyethylene catheter using Labchart 7.1 (AD Instruments Ltd).

## ALENLLPTKATDRENRCQCASQKDKKCWNFCQAGKELRAEDIMEKDWNNHKKGKDCSKLGKKCIYQQLVRGRKI (disulfide (positions not given here)) [ELDP]
[1]
  elution position on RP-HPLC (fraction number): 45 fraction
Anaesthetised rats; 3 nmol/kg i.v., anaesthetised rats
  effect on blood pressure, peptide alone: no effect
Anaesthetised rats; ET-1 0.3 nmol/kg i.v. given 15 min after ELDP 3 nmol/kg i.v., n = 6 per group
  magnitude of the initial pressor response to ET-1: without changing
Anaesthetised rats; ET-1 0.3 nmol/kg i.v. given 15 min after ELDP 3 nmol/kg i.v., n = 6 per group, P < 0.02
  duration of the pressor response to ET-1: significantly increased
